Results reported in patent US20170073337A1, “DIHYDROTHIAZINE AND DIHYDROOXAZINE DERIVATIVES HAVING BACE1 INHIBITORY ACTIVITY” (Shionogi & Co., Ltd., priority 2014, published 2017).
In brackets after ≈: the same amount, converted by molar mass. Like-named read-outs stand apart in the source and are kept apart here.

Tests used:
[1] = target: T1, CYP1A2 (Homo sapiens, UniProt P05177); assay: CYP inhibition test (CYP1A2); format: in vitro ADME; conditions: pooled human liver microsomes; 7-ethoxyresorufin O-deethylation
T1 construct: The commercially available pooled human liver microsomes are used as an enzyme resource; from tissue; host or cells: pooled human liver microsomes
T1 sequence (P05177 1-516): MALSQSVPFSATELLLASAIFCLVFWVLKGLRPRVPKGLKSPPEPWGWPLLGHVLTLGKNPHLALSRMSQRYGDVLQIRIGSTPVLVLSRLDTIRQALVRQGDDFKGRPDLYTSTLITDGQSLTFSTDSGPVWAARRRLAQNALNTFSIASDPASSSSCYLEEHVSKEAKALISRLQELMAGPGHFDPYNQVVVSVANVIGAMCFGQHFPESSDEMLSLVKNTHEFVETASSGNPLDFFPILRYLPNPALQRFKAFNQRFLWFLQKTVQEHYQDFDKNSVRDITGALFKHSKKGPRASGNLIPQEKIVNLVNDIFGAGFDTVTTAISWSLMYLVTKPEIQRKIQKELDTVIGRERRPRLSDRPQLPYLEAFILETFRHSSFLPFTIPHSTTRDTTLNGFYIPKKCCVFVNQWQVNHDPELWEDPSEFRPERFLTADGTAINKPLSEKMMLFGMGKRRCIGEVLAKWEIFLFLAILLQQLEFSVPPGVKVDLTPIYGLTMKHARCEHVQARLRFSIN
Outline: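 Inhibition of CYP1A2 was measured in commercially available pooled human liver microsomes (0.2 mg protein/mL) using 7-ethoxyresorufin O-deethylation with 0.5 μmol/L ethoxyresorufin. Test compound at 1, 5, 10, 20 μmol/L in […] Hepes buffer was incubated at 37° C. after NADPH addition; methanol/acetonitrile=1/1 (v/v) stopped the reaction, and resorufin was read fluorescently.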

[2] = target: T2, CYP3A4 (Homo sapiens, UniProt P08684); assay: CYP inhibition test (CYP3A4); format: in vitro ADME; conditions: pooled human liver microsomes; terfenadine hydroxylation
T2 construct: The commercially available pooled human liver microsomes are used as an enzyme resource; from tissue; host or cells: pooled human liver microsomes
Outline: (§1)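 Metabolite formation was quantified by LC/MS/MS: dextrorphan (2D6, 5 μmol/L dextromethorphan), terfenadine alcohol (3A4, 1 μmol/L terfenadine), 4′-hydroxymephenytoin (2C19, 50 μmol/L S-mephenytoin) and hydroxytolbutamide (2C9, 100 μmol/L tolbutamide). Reactions used NADPH-started pooled human liver microsomes (0.2 mg/mL) at 37 °C with compound at 1–20 μmol/L (four points). IC50 was calculated by logistic model relative to the DMSO control.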

[3] = Solubility test; format: physicochemical; conditions: kinetic from dmso stock; for solubility kinetic at 16 h: 25 °C
Outline: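 Dissolved concentration determined by LC/MS or SPE/MS (absolute calibration) in diluted filtrates, after 2 μL of 10 mmol/L DMSO stock was added to 198 μL JP 1st or JP 2nd fluid and equilibrated either 1 h with shaking at room temperature or 16 h standing at 25 °C.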

[4] = Metabolic stability test; format: in vitro ADME; conditions: human liver microsomes, 37° C., 30 minutes, NADPH
Outline: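 Parent compound was measured by LC/MS/MS or SPE/MS after a methanol/acetonitrile quench and reported as % remaining, with the 0 min sample set to 100%. Incubations ran 30 min at 37 °C in pH 7.4 Tris buffer containing pooled human liver microsomes at 0.5 mg protein/mL and 1 mmol/L NADPH.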

[5] = target: T3, human ether-a-go-go related gene (hERG) channel (Homo sapiens, UniProt Q12809); assay: hERG test; format: cell-based; conditions: % inhibition of IKr tail peak current at 3 uM; CHO cells expressing hERG
T3 construct: expressed in transfected cells; host or cells: CHO cells
Outline: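 IKr was recorded from hERG-expressing CHO cells by automated whole-cell patch clamp at a holding potential of −80 mV. A −50 mV leak step was followed by a 2 s depolarization to +20 mV and a 2 s repolarization to −50 mV, when current was measured.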

[6] = target: T4, CYP2C19 (Homo sapiens, UniProt P33261); assay: CYP inhibition test (CYP2C19); format: in vitro ADME; conditions: pooled human liver microsomes; mephenytoin 4′-hydroxylation
T4 construct: The commercially available pooled human liver microsomes are used as an enzyme resource; from tissue; host or cells: pooled human liver microsomes
Outline: as §1

[7] = JP 1st fluid, pH 1.2, simulated gastric fluid, read-out: JP1

T2 sequence (P08684 whole entry): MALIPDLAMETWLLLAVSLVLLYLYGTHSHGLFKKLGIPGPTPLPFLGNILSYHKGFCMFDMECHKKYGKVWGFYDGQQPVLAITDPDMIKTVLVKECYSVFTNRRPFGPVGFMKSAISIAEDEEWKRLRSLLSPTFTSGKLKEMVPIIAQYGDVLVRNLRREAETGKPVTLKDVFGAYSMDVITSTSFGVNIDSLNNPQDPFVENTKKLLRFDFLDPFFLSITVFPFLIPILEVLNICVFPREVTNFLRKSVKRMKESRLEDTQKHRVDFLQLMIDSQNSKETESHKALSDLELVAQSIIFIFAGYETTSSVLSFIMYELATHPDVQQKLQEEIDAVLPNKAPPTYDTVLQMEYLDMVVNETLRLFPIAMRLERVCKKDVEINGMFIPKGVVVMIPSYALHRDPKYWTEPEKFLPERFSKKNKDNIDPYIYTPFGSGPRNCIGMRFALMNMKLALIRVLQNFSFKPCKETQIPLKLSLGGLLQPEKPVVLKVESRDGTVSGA
T3 sequence (Q12809 whole entry): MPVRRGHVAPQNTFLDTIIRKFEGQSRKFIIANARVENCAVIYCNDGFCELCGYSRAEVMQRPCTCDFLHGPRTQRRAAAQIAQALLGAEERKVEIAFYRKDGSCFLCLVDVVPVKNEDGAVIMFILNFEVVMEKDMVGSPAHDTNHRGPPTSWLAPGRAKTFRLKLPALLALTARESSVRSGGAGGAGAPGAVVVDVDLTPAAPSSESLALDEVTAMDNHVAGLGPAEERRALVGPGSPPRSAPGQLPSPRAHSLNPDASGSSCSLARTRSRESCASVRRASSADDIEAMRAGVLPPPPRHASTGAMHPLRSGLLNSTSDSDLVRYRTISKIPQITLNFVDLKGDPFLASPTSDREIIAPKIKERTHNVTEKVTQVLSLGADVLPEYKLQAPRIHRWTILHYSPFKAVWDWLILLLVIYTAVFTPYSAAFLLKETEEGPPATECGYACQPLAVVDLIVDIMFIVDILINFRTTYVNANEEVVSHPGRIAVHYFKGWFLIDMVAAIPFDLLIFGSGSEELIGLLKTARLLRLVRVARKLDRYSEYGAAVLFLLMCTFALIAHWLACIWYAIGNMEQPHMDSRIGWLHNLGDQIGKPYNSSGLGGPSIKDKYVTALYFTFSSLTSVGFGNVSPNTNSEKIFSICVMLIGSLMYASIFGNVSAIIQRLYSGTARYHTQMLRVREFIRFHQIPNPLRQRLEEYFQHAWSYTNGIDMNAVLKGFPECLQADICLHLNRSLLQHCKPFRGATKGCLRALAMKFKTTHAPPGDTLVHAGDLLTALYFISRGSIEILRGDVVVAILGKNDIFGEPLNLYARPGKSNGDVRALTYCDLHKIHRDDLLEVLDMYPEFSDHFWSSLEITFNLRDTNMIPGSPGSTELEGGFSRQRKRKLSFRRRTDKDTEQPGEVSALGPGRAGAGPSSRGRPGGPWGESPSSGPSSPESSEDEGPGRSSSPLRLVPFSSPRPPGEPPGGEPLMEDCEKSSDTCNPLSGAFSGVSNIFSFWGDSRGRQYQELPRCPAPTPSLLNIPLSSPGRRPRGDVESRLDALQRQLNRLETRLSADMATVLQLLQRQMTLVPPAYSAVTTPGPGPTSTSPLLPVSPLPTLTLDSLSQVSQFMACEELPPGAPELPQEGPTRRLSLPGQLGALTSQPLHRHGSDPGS
T4 sequence (P33261 whole entry): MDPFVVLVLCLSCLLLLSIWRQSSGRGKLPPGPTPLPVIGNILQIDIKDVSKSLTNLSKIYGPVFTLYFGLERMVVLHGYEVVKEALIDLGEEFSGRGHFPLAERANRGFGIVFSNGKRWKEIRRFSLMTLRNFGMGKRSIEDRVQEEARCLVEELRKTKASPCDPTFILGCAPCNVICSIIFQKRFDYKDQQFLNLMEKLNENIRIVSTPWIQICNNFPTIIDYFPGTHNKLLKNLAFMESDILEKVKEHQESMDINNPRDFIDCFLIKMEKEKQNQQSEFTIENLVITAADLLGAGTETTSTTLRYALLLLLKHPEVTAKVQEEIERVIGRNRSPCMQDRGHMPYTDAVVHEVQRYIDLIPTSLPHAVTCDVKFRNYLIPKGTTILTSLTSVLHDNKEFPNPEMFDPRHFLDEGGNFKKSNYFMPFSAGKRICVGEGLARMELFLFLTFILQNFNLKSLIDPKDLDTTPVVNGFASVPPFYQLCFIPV

Structure (SMILES)	IC50 [1] [µM]	IC50 [2] [µM]	solubility kinetic at 1 h [3, 7] [µM]	solubility kinetic at 1 h ([3]; JP 2nd fluid B, pH 6.8, aqueous buffer, read-out: JP2_μM) [µM]	remaining % [4] [%]	hERG_3 uM_% [5] [%]	IC50 [6] [µM]	solubility kinetic at 16 h [3, 7] [µM]	solubility kinetic at 16 h ([3]; JP 2nd fluid A, pH 6.8, aqueous buffer, read-out: JP2_μM) [µM]
C[C@]1(c2cc(NC(=O)c3cnc(OCF)cn3)ccc2F)N=C(N)S[C@H](CO)[C@@H]1F [Compound I-109]	≥ 20	≥ 20	> 50	19 (≈ 8.39 µg/mL)	86.8	11	≥ 20	–	–
C[C@H]1SC(N)=N[C@](C)(c2cc(NC(=O)c3ccc(F)cn3)ccc2F)[C@H]1F [Compound I-116]	≥ 20	≥ 20	–	–	106	45.5	≥ 20	> 50	> 50
